Patent publication US10000771B2, “Nuclear targeting sequences” (Yeda Research and Development Co. Ltd., priority 2007, dated 2018)

Columns and labels:
CHO cells = test: Fluorescence microscopy of ERK2 constructs (subcellular localization); format: cell-based
Method: FIGS. 1A-1R are photomicrographs illustrating the role of SPS in the non-regulated accumulation of ERK2 in the nucleus. CHO (FIGS. 1A-F and 1M-R) or COS7 cells (FIGS. 1G-L) were grown on cover slips and transfected with WT-ERK2, or the mutants 244-6A and Δ244-6. Twenty-four hr following transfection, the cells were serum-starved (16 hr), fixed, stained with DAPI and visualized using a fluorescent microscope.
FIGS. 2A-2X are photomicrographs illustrating the role of SPS in the stimulated nuclear translocation of ERK2. CHO cells were grown on cover slips and co-transfected with HA-MEK1 together with either WT-ERK2, 244-6A, or Δ244-6. Twenty-four hr after transfection, the cells were serum starved for 16 hours, treated with TPA (250 nM, 15 min), except in WT-10 where the cells were treated with 10 nM TPA for 15 min. After treatments the cells were fixed and stained with either anti-HA Ab or DAPI.
FIGS. 5A-5F are photomicrographs illustrating that mutating the Ser residues in the SPS to Glu induces the nuclear accumulation of ERK2. CHO cells were grown on cover slips and transfected with WT-GFP-ERK2 (WT), APA-GFP-ERK2 (APA), or EPE-GFP-ERK2 (EPE). […]
Immunofluorescence Microscopy. […] Slides were visualized using a fluorescence microscope (Nikon, Japan) at 400× magnifications. […]

TEY motif of ERK2 = test: TEY phosphorylation by Western blot with anti pTEY-ERK; format: cell-based; settings: COS7 cells, following EGF stimulation
Method: FIG. […] ERK2 phosphorylation was detected by Western blot analysis using anti-phosphoTEY-ERK (αpTEY), and anti ERK Abs (αgERK).
Western Blotting: Cell extract was collected as described above, and aliquots from each sample (20 μg) were separated by 10% SDS-PAGE followed by Western blotting with the appropriate antibodies. The blots were developed with alkaline phosphatase or horseradish peroxidase-conjugated anti-mouse’, anti-rabbit and anti-goat Fab Abs.

Substance: WT-ERK2: wild-type ERK2 fused to GFP, prepared in pEGFP C1 [reference compound]
- localization upon TPA stimulation (CHO cells; CHO cells cotransfected with MEK1, TPA 250 nM): translocated into the nucleus upon TPA stimulation
- localization at equivalent TEY phosphorylation levels (CHO cells; CHO cells cotransfected with MEK1, TPA 10 nM for WT-ERK2 and 250 nM for the mutants): localized to the nucleus
- time of peak TEY phosphorylation (TEY motif of ERK2): 5 min
